Earlier results as cited in patent US20220079889A1, “USE OF CANNABANOIDS IN THE TREATMENT OF PROLIFERATIVE DIABETIC RETINOPATHY” (VERDANT PHARMACEUTICALS, LLC, priority 2020, published 2022).

Conditions: typical value; cited from earlier work

Row | Compound | time of persistence in the target neovasculature
1 | C=Cc1c(C)c2cc3nc(c(CC(=O)N[C@@H](CC(=O)O)C(=O)O)c4[nH]c(cc5nc(cc1[nH]2)C(C)=C5CC)c(C)c4C(=O)O)[C@@H](CCC(=O)O)[C@@H]3C [N-aspartyl chlorin e6] | about twenty
2 | CC(=O)[O-].CC(=O)[O-].CCc1c(CC)c2cc3nc(cnc4cc(OCCOCCOCCOC)c(OCCOCCOCCOC)cc4ncc4nc(cc1[n-]2)C(CCCO)=C4C)C(C)=C3CCCO.O.[Lu+3] [lutetium texaphyrin] | about twenty
3 | benzoporphyrin derivative [bcnzoporphyrin derivative] | about fifty
